# Test results from US11021457B2, “Class of isoindolone-imide ring-1,3-dione-2-ene compounds, composition and use thereof” (WIGEN BIOMEDICINE TECHNOLOGY (SHANGHAI) CO., LTD., priority 2017, dated 2021).
# Experiments:
# Type in all cases: cell-based
# Conditions in all cases: compound concentration 50 μM, 72 hours
# [1] = system: RPMI-8226; assay: Inhibition of tumor cell proliferation, CellTiter-Glo, RPMI-8226
# Procedure: (§1) For various cell lines, the corresponding complete medium was used, and culture was carried out in an incubator at 37° C. with 5% CO2. The cells were counted, and inoculated into a 96-well plate at 2000-10000 cells/100 μl per well according to the cell volume and growth rate. The suspended cells were treated immediately, and the adherent cells were treated after adherence. The CellTiter-Glo method was used to detect the changes in cell viability 72 hours after the administration, and the cell survival rate at different concentrations was calculated by a formula: Survival rate (%)=(RLU of treatment well−RLU of blank well)/(RLU of control well−RLU of blank well)×100.
# (§2) Method for expressing the inhibitory activity of the compounds against the proliferation of tumor cells: Evaluation was made based on the cell survival rate at a compound concentration of 50 μM. 60≤survival rate (%)<90 is considered to have low inhibitory activity against the proliferation of tumor cells (+); 30<survival rate (%)≤60 is considered to have moderate inhibitory activity against the proliferation of tumor cells (++); and survival rate (%)≤30 is considered to have high inhibitory activity against the proliferation of tumor cells (+++).
# [2] = system: MDA-MB-453; assay: Inhibition of tumor cell proliferation, CellTiter-Glo, MDA-MB-453
# Procedure: as §1, §2
# [3] = system: A549; assay: Inhibition of tumor cell proliferation, CellTiter-Glo, A549
# Procedure: as §1, §2
# [4] = system: BxPC-3; assay: Inhibition of tumor cell proliferation, CellTiter-Glo, BxPC-3
# Procedure: as §1, §2
# [5] = system: K562; assay: Inhibition of tumor cell proliferation, CellTiter-Glo, K562
# Procedure: as §1, §2
# [6] = system: SU-DHL6; assay: Inhibition of tumor cell proliferation, CellTiter-Glo, SU-DHL6
# Procedure: as §1, §2
SMILES,Inhibitory activity against proliferation (cell survival rate) RPMI-8226 [1],Inhibitory activity against proliferation (cell survival rate) MDA-MB-453 [2],Inhibitory activity against proliferation (cell survival rate) A549 [3],Inhibitory activity against proliferation (cell survival rate) BxPC-3 [4],Inhibitory activity against proliferation (cell survival rate) K562 [5],Inhibitory activity against proliferation (cell survival rate) SU-DHL6 [6],"cell survival rate (% of control) at 50 µM ([1]; Homo sapiens, RPMI-8226, read-out: Inhibitory activity against proliferation (cell survival rate) RPMI-8226)","cell survival rate (%) at 50 µM ([2]; Homo sapiens, MDA-MB-453, read-out: Inhibitory activity against proliferation (cell survival rate) MDA-MB-453)","cell survival rate (% of control) at 50 µM ([3]; Homo sapiens, A549, read-out: Inhibitory activity against proliferation (cell survival rate) A549)","cell survival rate (%) at 50 µM ([4]; Homo sapiens, BXPC-3, read-out: Inhibitory activity against proliferation (cell survival rate) BxPC-3)","cell survival rate (%) at 50 µM ([5]; Homo sapiens, K562, read-out: Inhibitory activity against proliferation (cell survival rate) K562)","cell survival rate (% of control) at 50 µM ([6]; Homo sapiens, SU-DHL-6, read-out: Inhibitory activity against proliferation (cell survival rate) SU-DHL6)"
O=C1CCC(N2C(=O)c3cccc(NC=C4C(=O)CC(c5ccccc5)CC4=O)c3C2=O)C(=O)N1 (centres unmarked) [Compound 2],++ (30<survival rate (%)≤60),+ (60≤survival rate (%)<90),++ (30<survival rate (%)≤60),+ (60≤survival rate (%)<90),+++ (survival rate (%)≤30),+++ (survival rate (%)≤30),,,,,,
Cc1ccccc1C1CC(=O)C(=CNc2cccc3c2CN(C2CCC(=O)NC2=O)C3=O)C(=O)C1 (centres unmarked) [Compound 4],+++ (survival rate (%)≤30),+ (60≤survival rate (%)<90),+ (60≤survival rate (%)<90),+ (60≤survival rate (%)<90),++ (30<survival rate (%)≤60),+ (60≤survival rate (%)<90),,,,,,
O=C1CCC(N2Cc3cc(NC=C4C(=O)CC(c5ccccc5)CC4=O)ccc3C2=O)C(=O)N1 (centres unmarked) [Compound 8],++ (30<survival rate (%)≤60),+ (60≤survival rate (%)<90),++ (30<survival rate (%)≤60),++ (30<survival rate (%)≤60),++ (30<survival rate (%)≤60),+ (60≤survival rate (%)<90),,,,,,
O=C1CCC(N2C(=O)c3ccc(NC=C4C(=O)CC(c5ccccc5)CC4=O)cc3C2=O)C(=O)N1 (centres unmarked) [Compound 9],++ (30<survival rate (%)≤60),+ (60≤survival rate (%)<90),++ (30<survival rate (%)≤60),++ (30<survival rate (%)≤60),++ (30<survival rate (%)≤60),+ (60≤survival rate (%)<90),,,,,,
O=C1CCC(N2Cc3ccc(NC=C4C(=O)CC(c5ccccc5)CC4=O)cc3C2=O)C(=O)N1 (centres unmarked) [Compound 10],++ (30<survival rate (%)≤60),+ (60≤survival rate (%)<90),+ (60≤survival rate (%)<90),++ (30<survival rate (%)≤60),++ (30<survival rate (%)≤60),+ (60≤survival rate (%)<90),,,,,,
O=C1CCC(N2Cc3c(NC=C4C(=O)CC(c5ccc(OC(F)(F)F)cc5)CC4=O)cccc3C2=O)C(=O)N1 (centres unmarked) [Compound 22],+ (60≤survival rate (%)<90),++ (30<survival rate (%)≤60),+ (60≤survival rate (%)<90),++ (30<survival rate (%)≤60),+ (60≤survival rate (%)<90),+ (60≤survival rate (%)<90),,,,,,
O=C1CCC(N2Cc3c(NC=C4C(=O)CC(c5ccccc5C(F)(F)F)CC4=O)cccc3C2=O)C(=O)N1 (centres unmarked) [Compound 23],+++ (survival rate (%)≤30),++ (30<survival rate (%)≤60),+++ (survival rate (%)≤30),++ (30<survival rate (%)≤60),++ (30<survival rate (%)≤60),+++ (survival rate (%)≤30),,,,,,
O=C1CCC(N2Cc3c(NC=C4C(=O)CC(c5ccccc5F)CC4=O)cccc3C2=O)C(=O)N1 (centres unmarked) [Compound 24],+ (60≤survival rate (%)<90),++ (30<survival rate (%)≤60),++ (30<survival rate (%)≤60),++ (30<survival rate (%)≤60),+ (60≤survival rate (%)<90),+++ (survival rate (%)≤30),,,,,,
O=C1CCC(N2Cc3c(NC=C4C(=O)CC(c5cccc6sccc56)CC4=O)cccc3C2=O)C(=O)N1 (centres unmarked) [Compound 27],+++ (survival rate (%)≤30),+++ (survival rate (%)≤30),+++ (survival rate (%)≤30),+ (60≤survival rate (%)<90),+++ (survival rate (%)≤30),+++ (survival rate (%)≤30),,,,,,
O=C1CCC(N2Cc3c(NC=C4C(=O)CC(c5ccccc5)C(F)C4=O)cccc3C2=O)C(=O)N1 (centres unmarked) [Compound 28],,,,,,,≤ 30%,≤ 30%,≤ 30%,30 to 60%,≤ 30%,≤ 30%
O=C1CCC(N2Cc3c(NC=C4C(=O)CC(c5cccc6ccccc56)CC4=O)cccc3C2=O)C(=O)N1 (centres unmarked) [Compound 29],+++ (survival rate (%)≤30),+++ (survival rate (%)≤30),+++ (survival rate (%)≤30),++ (30<survival rate (%)≤60),+++ (survival rate (%)≤30),++ (30<survival rate (%)≤60),,,,,,
O=C1CCC(N2Cc3c(NC=C4C(=O)CC(C5CCCCC5)CC4=O)cccc3C2=O)C(=O)N1 (centres unmarked) [Compound 131],+++ (survival rate (%)≤30),+++ (survival rate (%)≤30),,+ (60≤survival rate (%)<90),++ (30<survival rate (%)≤60),+ (60≤survival rate (%)<90),,,,,,
